The experiment deals with BDF1 mice, P815 leukemia ip, survival T/C. The experiment is described as follows: NCI In Vivo Anticancer Drug Screen. Data for tumor model P815 Mast Cell Leukemia (Ascitic) (intraperitoneal) in B6D2F1 (BDF1) mice. The conditions noted are these: endpoint: survival time, mean or median, higher = longer survival. As to the method:
The antitumor activity of compounds was measured in mice bearing transplantable tumors. Survival or tumor size were measured and the results are expressed as the measurement made in the treated group (T) divided by the measurement made in the vehicle treated control group (C). The tumor model used in this assay is P815 Mast Cell Leukemia (Ascitic) (intraperitoneal) in B6D2F1 (BDF1) mice

The structures appear in SMILES notation. Toxic doses and inconclusive results are not listed.

The text below walks through data of PubChem BioAssay AID318 (DTP/NCI, 2004).

In the case of `CCCNC(=NC)c1ccc(NC(=O)c2ccc(C(=O)Nc3ccc(C(=NC)NCCC)cc3)cc2)cc1`, the T/C is 121 % of control (dose: 5.2 mg/kg/injection, schedule: Q01DX010 (ip), vehicle: saline); 121 % of control (dose: 8.0 mg/kg/injection, schedule: Q01DX010 (ip), vehicle: saline); 121 % of control (dose: 12.0 mg/kg/injection, schedule: Q01DX010 (ip), vehicle: saline); 100 % of control (dose: 18.0 mg/kg/injection, schedule: Q01DX010 (ip), vehicle: saline).
For `CC(Cl)CN(Cc1cc(O)c(CN(CC(C)Cl)CC(C)Cl)cc1O)CC(C)Cl` (stereo unspecified), the T/C by setting is: (dose: 62.5 mg/kg/injection, schedule: Q01DX015 (ip), vehicle: carboxymethylcellulose (CMC)) 114 % of control; (dose: 125.0 mg/kg/injection, schedule: Q01DX015 (ip), vehicle: carboxymethylcellulose (CMC)) 99 % of control; (dose: 250.0 mg/kg/injection, schedule: Q01DX015 (ip), vehicle: carboxymethylcellulose (CMC)) 122 % of control; (dose: 500.0 mg/kg/injection, schedule: Q01DX015 (ip), vehicle: carboxymethylcellulose (CMC)) 124 % of control.
Regarding `O=C(Nc1ccc(C2=NCCN2)cc1)c1ccc(C(=O)Nc2ccc(C3=NCCN3)cc2)c(Cl)c1`, the T/C is 109 % of control (dose: 1.5 mg/kg/injection, schedule: Q01DX015 (ip), vehicle: carboxymethylcellulose (CMC)); 182 % of control (dose: 6.0 mg/kg/injection, schedule: Q01DX015 (ip), vehicle: carboxymethylcellulose (CMC)); 176 % of control (dose: 9.0 mg/kg/injection, schedule: Q01DX015 (ip), vehicle: carboxymethylcellulose (CMC)).
